Measured values: the NIST ThermoML archive (doi:10.1021/je401057z)
Numbers after ± are expanded uncertainties.

Conditions: Liquid

## Cc1ccccc1C [1,2-dimethylbenzene]
456.1 K
  vapor or sublimation pressure: 250 ± 10 kPa

## Cc1cccc(C)c1 [1,3-dimethylbenzene]
450.1 K
  vapor or sublimation pressure: 250 ± 10 kPa

## Cc1ccc(C)cc1 [1,4-dimethylbenzene]
410.78 K, Ebulliometric method (Recirculating still)
  vapor or sublimation pressure: 100.04 ± 3.2 kPa
412.63 K, Ebulliometric method (Recirculating still)
  vapor or sublimation pressure: 105 ± 3.4 kPa
419.48 K, Ebulliometric method (Recirculating still)
  vapor or sublimation pressure: 124.93 ± 4 kPa
433.57 K, Ebulliometric method (Recirculating still)
  vapor or sublimation pressure: 174.88 ± 5.6 kPa
439.37 K, Ebulliometric method (Recirculating still)
  vapor or sublimation pressure: 199.86 ± 6.4 kPa
444.66 K, Ebulliometric method (Recirculating still)
  vapor or sublimation pressure: 224.86 ± 7.2 kPa
449.56 K, Ebulliometric method (Recirculating still)
  vapor or sublimation pressure: 250.04 ± 8 kPa
449.6 K, Ebulliometric method (Recirculating still)
  vapor or sublimation pressure: 250 ± 8 kPa

## CC(C)CC(C)(C)C [2,2,4-trimethylpentane]
371.55 K
  vapor or sublimation pressure: 100.05 ± 3.5 kPa
373.4 K
  vapor or sublimation pressure: 104.94 ± 3.7 kPa
379.8 K
  vapor or sublimation pressure: 124.9 ± 4.3 kPa
386.94 K
  vapor or sublimation pressure: 149.96 ± 5.1 kPa
393.14 K
  vapor or sublimation pressure: 174.7 ± 6 kPa
398.64 K
  vapor or sublimation pressure: 199.94 ± 6.8 kPa
403.68 K
  vapor or sublimation pressure: 224.91 ± 7.6 kPa
408.28 K
  vapor or sublimation pressure: 249.95 ± 8.4 kPa
408.3 K
  vapor or sublimation pressure: 250 ± 8 kPa

## CCc1ccccc1 [ethylbenzene]
447.2 K
  vapor or sublimation pressure: 250 ± 10 kPa
